Experimental data reported in patent US10407467B2, “Polymyxin derivatives and their use in combination therapy together with different antibiotics” (priority 2013, dated 2019).
Numbered stars: 1 amine (or outer) side, 2 acyl side, 3 side chain; on linkers, the order of the positions; unused ones are H or OH. Bridge positions count the residues as written; N and C are the ends. Square brackets hold non-standard residues; d marks the D form. Peptide text beside a SMILES is read from it. * marks the point of attachment. ξ: configuration not given here. Achc(trans-4) = O=C([C@H]1CC[C@H](N[*:1])CC1)[*:2]; ξβ3hGly(cHex) = NC(CC(=O)*)C1CCCCC1; Thr(3ξ) = CC(O)[C@H](N)C(=O)O; Dab = NCC[C@H](N)C(=O)O

Tests used:
Format in all cases: cell-based
Acinetobacter baumannii [1] = assay: MIC, compound in combination with a second agent (broth microdilution); settings: for MIC A. baumannii ATCC BAA-747: strain ATCC BAA-747; for MIC A. baumannii CCUG57249: strain CCUG57249; for MIC A. baumannii NCTC 13423: strain NCTC 13423
Summary of the method: (§1)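 Compound and second agent (e.g. rifampicin) were combined 1:1 w/w, compound weighed as its TFA or sulphate salt. Inoculum was a direct colony suspension from 18-24 hour Mueller-Hinton agar at 0.5 McFarland. MIC is the total drug concentration; lower of duplicates reported, modal value when tested repeatedly.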

Escherichia coli [2] = assay: as above
Summary of the method: as §1

Klebsiella pneumoniae [3] = assay: as above; settings: for MIC K. pneumoniae ATCC-BAA-2146: strain ATCC-BAA-2146; for MIC K. pneumoniae CCUG-59348: strain CCUG-59348
Summary of the method: as §1

Pseudomonas aeruginosa [4] = assay: as above; settings: for MIC P. aeruginosa ATCC CRM-9027: strain ATCC CRM-9027; for MIC P. aeruginosa ATCC-47: strain ATCC-47
Summary of the method: as §1

Acinetobacter baumannii [5] = assay: MIC, sole activity (no second agent)
Summary of the method: (§2)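 Inoculum: direct colony suspension (18-24 h MH agar), 0.5 McFarland. Medium: cation-adjusted MHB. Up to 4 strains/species; reported relative to Polymyxin B.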

Escherichia coli [6] = assay: MIC, sole activity (no second agent); settings: for MIC E. coli ATCC25922: strain ATCC25922
Summary of the method: as §2

Klebsiella pneumoniae [7] = assay: MIC, sole activity (no second agent); settings: for MIC K. pneumoniae ATCC-BAA2146: strain ATCC-BAA2146; for MIC K. pneumoniae CCUG-59348: strain CCUG-59348
Summary of the method: as §2

Pseudomonas aeruginosa [8] = assay: MIC, sole activity (no second agent)
Summary of the method: as §2

[9] = 1:1 (wt:wt) combination with Rifampicin, MIC = total drug concentration
[10] = 1:1 (wt:wt) combination with Rifampicin, MIC = total drug concentration, strain NCTC 13424
[11] = 1:1 combination with Ciprofloxacin (by row order), total drug concentration
[12] = 1:1 (wt:wt) combination with Rifampicin, MIC = total drug concentration, strain ATCC25922
[13] = 1:1 (wt:wt) combination with Rifampicin, MIC = total drug concentration, strain NCTC9001
[14] = 1:1 combination with Ciprofloxacin, total drug concentration
[15] = 1:1 combination with Tigecycline, total drug concentration
[16] = 1:1 combination with Vancomycin, total drug concentration
[17] = 1:1 (wt:wt) combination with Rifampicin, MIC = total drug concentration, strain ATCC 4352
[18] = 1:1 (wt:wt) combination with Rifampicin, MIC = total drug concentration, strain ATCC 27853
[19] = 1:1 (wt:wt) combination with Rifampicin, MIC = total drug concentration, strain CCUG 59626
[20] = Second Agent none (Table 7B, by row order)
[21] = in the absence of Rifampicin, strain NCTC9001
[22] = in the absence of Rifampicin, strain ATCC 4352
[23] = in the absence of Rifampicin, strain ATCC27853
[24] = in the absence of Rifampicin, strain CCUG 59626

## CC(C)C[C@@H]1NC(=O)[C@@H](Cc2ccccc2)NC(=O)[C@H](CCN)NC(=O)[C@@H](NC(=O)[C@H](CCN)NC(=O)[C@@H](NC(=O)[C@H]2CC[C@H](N)CC2)[C@@H](C)O)CCNC(=O)[C@H]([C@@H](C)O)NC(=O)[C@H](CCN)NC(=O)[C@H](CCN)NC1=O [Example 17, Trans-4-aminocyclohexane-carbonyl polymyxin B nonapeptide] (H-[Achc(trans-4)]T[Dab][Dab][Dab][dF]L[Dab][Dab]T; lactam 4-C)
Acinetobacter baumannii [1]; [9]
  MIC A. baumannii ATCC BAA-747: 0.125 micrograms/mL
  MIC A. baumannii CCUG57249: <0.06 micrograms/mL
  MIC A. baumannii NCTC 13423: ≤0.06 micrograms/mL
Acinetobacter baumannii [1]; [10]
  MIC A. baumannii NCTC 13424: <0.06 micrograms/mL
Acinetobacter baumannii [1]; [11]
  MIC A. baumannii NCTC 13424: 0.5 micrograms/mL
Escherichia coli [2]; [12]
  MIC E. coli ATCC25922: ≤0.06 micrograms/mL
Escherichia coli [2]; [13]
  MIC E. coli NCTC9001: 0.125 micrograms/mL
Escherichia coli [2]; [14]
  MIC E. coli ATCC25922: ≤0.06 micrograms/mL
  MIC E. coli CCUG 59342: 0.5 micrograms/mL
  MIC E. coli NCTC9001: ≤0.06 micrograms/mL
Escherichia coli [2]; [15]
  MIC E. coli NCTC9001: 16 micrograms/mL
Escherichia coli [2]; [16]
  MIC E. coli NCTC9001: 16 microgram/mL
Escherichia coli [2]; E. coli NCTC9001, 1:1 combination with Meropenem, total drug concentration
  MIC E. coli NCTC9001: 0.25 micrograms/mL
Klebsiella pneumoniae [3]; [17]
  MIC K. pneumoniae ATCC 4352: 0.125 micrograms/mL
Klebsiella pneumoniae [3]; [9]
  MIC K. pneumoniae ATCC-BAA-2146: 0.125 micrograms/mL
  MIC K. pneumoniae CCUG-59348: 2 micrograms/mL
Klebsiella pneumoniae [3]; 1:1 (wt:wt) combination with Rifampicin, MIC = total drug concentration, strain NCTC 13438
  MIC K. pneumoniae NCTC 13438: 0.25 micrograms/mL
Klebsiella pneumoniae [3]; [11]
  MIC K. pneumoniae ATCC 4352: ≤0.06 micrograms/mL
Klebsiella pneumoniae [3]; [14]
  MIC K. pneumoniae CCUG 59348: >32 micrograms/mL
  MIC K. pneumoniae NCTC 13442: 1 micrograms/mL
Klebsiella pneumoniae [3]; [15]
  MIC K. pneumoniae CCUG 59348: >32 micrograms/mL
  MIC K. pneumoniae NCTC 13442: 16 micrograms/mL
Klebsiella pneumoniae [3]; [16]
  MIC K. pneumoniae CCUG 59348: >32 microgram/mL
  MIC K. pneumoniae CCUG 59626: 0.25 microgram/mL
  MIC K. pneumoniae NCTC 13442: 32 microgram/mL
Klebsiella pneumoniae [3]; K. pneumoniae ATCC BAA-1706, 1:1 combination with Meropenem, total drug concentration
  MIC K. pneumoniae ATCC BAA-1706: 4 micrograms/mL
Klebsiella pneumoniae [3]; K. pneumoniae CCUG 59348, 1:1 combination with Meropenem, total drug concentration
  MIC K. pneumoniae CCUG 59348: >32 micrograms/mL
Klebsiella pneumoniae [3]; K. pneumoniae NCTC 13442, 1:1 combination with Meropenem, total drug concentration
  MIC K. pneumoniae NCTC 13442: 16 micrograms/mL
Pseudomonas aeruginosa [4]; [18]
  MIC P. aeruginosa ATCC 27853: 0.125 micrograms/mL
Pseudomonas aeruginosa [4]; [9]
  MIC P. aeruginosa ATCC CRM-9027: 0.125 micrograms/mL
  MIC P. aeruginosa ATCC-47: 0.125 micrograms/mL
Pseudomonas aeruginosa [4]; [19]
  MIC P. aeruginosa CCUG 59626: 0.125 micrograms/mL
Pseudomonas aeruginosa [4]; [11]
  MIC P. aeruginosa ATCC 27853: ≤0.06 micrograms/mL
  MIC P. aeruginosa CCUG 59626: 0.5 micrograms/mL
Pseudomonas aeruginosa [4]; [15]
  MIC P. aeruginosa CCUG 59626: 0.25 micrograms/mL
Pseudomonas aeruginosa [4]; P. aeruginosa CCUG 59626, 1:1 combination with Meropenem, total drug concentration
  MIC P. aeruginosa CCUG 59626: 0.5 micrograms/mL
Acinetobacter baumannii [5]; [20]
  MIC A. baumannii NCTC 13424: 4 micrograms/mL
Escherichia coli [6]; Second Agent none (Table 7B)
  MIC E. coli CCUG 59342: 0.25 micrograms/mL
  MIC E. coli NCTC9001: 16 micrograms/mL
Escherichia coli [6]; in the absence of Rifampicin
  MIC E. coli ATCC25922: 2 micrograms/mL
Escherichia coli [6]; [21]
  MIC E. coli NCTC9001: 16 micrograms/mL
Klebsiella pneumoniae [7]; K. pneumoniae CCUG 59348, second agent none
  MIC K. pneumoniae CCUG 59348: >32 micrograms/mL
Klebsiella pneumoniae [7]; K. pneumoniae NCTC 13442, second agent none
  MIC K. pneumoniae NCTC 13442: >32 micrograms/mL
Klebsiella pneumoniae [7]; Second Agent none (Table 7A)
  MIC K. pneumoniae CCUG 59348: >32 microgram/mL
  MIC K. pneumoniae CCUG 59626: 0.25 microgram/mL
  MIC K. pneumoniae NCTC 13442: >32 microgram/mL
Klebsiella pneumoniae [7]; Second Agent none (Table 7B)
  MIC K. pneumoniae CCUG 59348: >32 micrograms/mL
  MIC K. pneumoniae NCTC 13442: >32 micrograms/mL
Klebsiella pneumoniae [7]; [20]
  MIC K. pneumoniae ATCC 4352: 0.125 micrograms/mL
Klebsiella pneumoniae [7]; Second Agent none (Table 7C)
  MIC K. pneumoniae CCUG 59348: >32 micrograms/mL
  MIC K. pneumoniae NCTC 13442: >32 micrograms/mL
Klebsiella pneumoniae [7]; [22]
  MIC K. pneumoniae ATCC 4352: 0.125 micrograms/mL
Klebsiella pneumoniae [7]; in the absence of Rifampicin
  MIC K. pneumoniae ATCC-BAA2146: 8 micrograms/mL
  MIC K. pneumoniae CCUG-59348: >32 micrograms/mL
Klebsiella pneumoniae [7]; in the absence of Rifampicin, strain NCTC-13438
  MIC K. pneumoniae NCTC-13438: 32 micrograms/mL
Pseudomonas aeruginosa [8]; P. aeruginosa CCUG 59626, second agent none
  MIC P. aeruginosa CCUG 59626: 0.25 micrograms/mL
Pseudomonas aeruginosa [8]; [20]
  MIC P. aeruginosa ATCC 27853: 0.125 micrograms/mL
  MIC P. aeruginosa CCUG 59626: 0.25 micrograms/mL
Pseudomonas aeruginosa [8]; Second Agent none (Table 7C)
  MIC P. aeruginosa CCUG 59626: 0.25 micrograms/mL
Pseudomonas aeruginosa [8]; [23]
  MIC P. aeruginosa ATCC 27853: 0.125 micrograms/mL
Pseudomonas aeruginosa [8]; [24]
  MIC P. aeruginosa CCUG 59626: 0.25 micrograms/mL

## CC(C)C[C@H]1NC(=O)[C@H](CCN)NC(=O)[C@@H](NC(=O)[C@H](CCN)NC(=O)[C@@H](NC(=O)CC(N)C2CCCCC2)C(C)O)CCNC(=O)[C@H](C(C)O)NC(=O)[C@H](CCN)NC(=O)[C@H](CCN)NC(=O)[C@H](C(C)O)NC1=O (stereo partly drawn) [Example 50, 3-Amino-3-cyclohexyl propanoyl-Thr-Dab-(cyclo)Dab*-Dab-DLeu-Thr-Dab-Dab-Thr*] ({ξβ3hGly(cHex)}-[Thr(3ξ)][Dab][Dab][Dab][dL][Thr(3ξ)][Dab][Dab][Thr(3ξ)]; lactam 3-C)
Acinetobacter baumannii [1]; [9]
  MIC A. baumannii ATCC BAA-747: 0.125 micrograms/mL
  MIC A. baumannii CCUG57249: 0.125 micrograms/mL
  MIC A. baumannii NCTC 13423: 0.125 micrograms/mL
Acinetobacter baumannii [1]; [10]
  MIC A. baumannii NCTC 13424: 0.125 micrograms/mL
Escherichia coli [2]; [12]
  MIC E. coli ATCC25922: ≤0.06 micrograms/mL
Escherichia coli [2]; [13]
  MIC E. coli NCTC9001: 0.125 micrograms/mL
Klebsiella pneumoniae [3]; [17]
  MIC K. pneumoniae ATCC 4352: ≤0.06 micrograms/mL
Klebsiella pneumoniae [3]; [9]
  MIC K. pneumoniae ATCC-BAA-2146: 0.25 micrograms/mL
  MIC K. pneumoniae CCUG-59348: 8 micrograms/mL
Pseudomonas aeruginosa [4]; [18]
  MIC P. aeruginosa ATCC 27853: 0.125 micrograms/mL
Pseudomonas aeruginosa [4]; [9]
  MIC P. aeruginosa ATCC CRM-9027: 0.125 micrograms/mL
  MIC P. aeruginosa ATCC-47: 0.25 micrograms/mL
Pseudomonas aeruginosa [4]; [19]
  MIC P. aeruginosa CCUG 59626: 0.25 micrograms/mL
Acinetobacter baumannii [5]; in the absence of Rifampicin, strain ATCC13424
  MIC A. baumannii ATCC13424: 4 micrograms/mL
Acinetobacter baumannii [5]; in the absence of Rifampicin, strain ATCCBAA-747
  MIC A. baumannii ATCCBAA-747: 4 micrograms/mL
Acinetobacter baumannii [5]; in the absence of Rifampicin, strain CCUG 57249
  MIC A. baumannii CCUG57249: 4 micrograms/mL
Acinetobacter baumannii [5]; in the absence of Rifampicin, strain NCTC13423
  MIC A. baumannii NCTC 13423: 2 micrograms/mL
Escherichia coli [6]; in the absence of Rifampicin
  MIC E. coli ATCC25922: >32 micrograms/mL
Escherichia coli [6]; [21]
  MIC E. coli NCTC9001: >32 micrograms/mL
Klebsiella pneumoniae [7]; [22]
  MIC K. pneumoniae ATCC 4352: 4 micrograms/mL
Klebsiella pneumoniae [7]; in the absence of Rifampicin
  MIC K. pneumoniae ATCC-BAA2146: 16 micrograms/mL
  MIC K. pneumoniae CCUG-59348: >32 micrograms/mL
Pseudomonas aeruginosa [8]; [23]
  MIC P. aeruginosa ATCC 27853: 32 micrograms/mL
Pseudomonas aeruginosa [8]; in the absence of Rifampicin, strain ATCC-47
  MIC P. aeruginosa ATCC-47: 32 micrograms/mL
Pseudomonas aeruginosa [8]; in the absence of Rifampicin, strain ATCCCRM-9027
  MIC P. aeruginosa ATCCCRM-9027: 0.5 micrograms/mL
Pseudomonas aeruginosa [8]; [24]
  MIC P. aeruginosa CCUG 59626: 2 micrograms/mL
